We go through four compounds from PMC10407959 (Journal of medicinal chemistry, 2023).

“Also recorded” adds a separate entry of the source. Like-named read-outs stand apart in the source and are kept apart here. Marks after values point to notes of the source that are not given here.

Data set [1] concerns the target T1, hP2Y14R (Homo sapiens, UniProt Q15391).
T1 sequence (Q15391 1-338): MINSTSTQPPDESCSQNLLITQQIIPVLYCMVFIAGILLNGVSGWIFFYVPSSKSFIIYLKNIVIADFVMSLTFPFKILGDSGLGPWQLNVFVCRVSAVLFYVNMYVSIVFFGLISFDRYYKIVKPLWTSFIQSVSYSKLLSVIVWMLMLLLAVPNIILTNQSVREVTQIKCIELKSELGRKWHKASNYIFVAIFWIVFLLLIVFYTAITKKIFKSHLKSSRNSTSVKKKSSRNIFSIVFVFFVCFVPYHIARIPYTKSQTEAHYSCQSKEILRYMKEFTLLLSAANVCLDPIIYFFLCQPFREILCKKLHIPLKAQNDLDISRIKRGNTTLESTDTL
The data set is described as follows: cell-based.

For data set [2] the following is noted: rat, 3 mg/kg, i.p.; previous data; cited from earlier work.
For data set [3] the following is noted: ref Wen et al. 5; cited from earlier work.
The conditions of data set [4]: rat (r), ref Wen et al. 5; cited from earlier work.
The conditions of data set [5]: ref Wen et al. 5; cited from earlier work. The source holds these as a separate data set.
A further data set concerns the target CYP2C19 (Homo sapiens, UniProt P33261). To be noted: read-out: CYP2C19 (IC50); ref Wen et al. 5; cited from earlier work.
The target of a further data set is CYP2C9 (Homo sapiens, UniProt P11712). To be noted: read-out: CYP2C9 (IC50); ref Wen et al. 5; cited from earlier work.
The target in another data set is CYP2D6 (Homo sapiens, UniProt P10635). To be noted: read-out: CYP2D6 (IC50); ref Wen et al. 5; cited from earlier work.
The target of the next data set is T2, CYP1A2 (Homo sapiens, UniProt P05177).
T2 sequence (P05177 1-516): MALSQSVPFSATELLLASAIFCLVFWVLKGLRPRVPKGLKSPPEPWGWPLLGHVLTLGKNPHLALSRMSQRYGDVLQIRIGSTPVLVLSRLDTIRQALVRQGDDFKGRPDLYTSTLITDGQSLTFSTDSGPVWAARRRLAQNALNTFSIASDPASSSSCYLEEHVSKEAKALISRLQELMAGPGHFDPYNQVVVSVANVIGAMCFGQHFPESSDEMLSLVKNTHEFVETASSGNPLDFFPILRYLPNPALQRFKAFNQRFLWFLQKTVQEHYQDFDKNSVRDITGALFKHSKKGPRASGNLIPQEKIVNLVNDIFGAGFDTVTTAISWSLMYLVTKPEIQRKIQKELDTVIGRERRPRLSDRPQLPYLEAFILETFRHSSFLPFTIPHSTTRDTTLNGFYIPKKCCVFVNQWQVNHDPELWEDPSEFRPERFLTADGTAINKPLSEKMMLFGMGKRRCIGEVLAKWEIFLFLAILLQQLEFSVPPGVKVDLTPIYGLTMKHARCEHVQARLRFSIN
To be noted: read-out: CYP1A2 (IC50); ref Wen et al. 5; cited from earlier work.

Another data set has as its target CYP3A4 (Homo sapiens, UniProt P08684). To be noted: read-out: CYP3A4 (IC50); ref Wen et al. 5; cited from earlier work.
For data set [6] the following is noted: pH 7.4, pION method, determined by Jai Research Foundation; ref Wen et al. 5; cited from earlier work.
For data set [7] the following is noted: mouse (m), ref Wen et al. 5; cited from earlier work.
A further data set addresses hERG (Homo sapiens, UniProt Q12809). To be noted: read-out: hERG, IC50; fluorescent dye binding method; ref Wen et al. 5; cited from earlier work. A general note: Block of hERG is tested as a sign of cardiac risk.
The subject of data set [8] is protease-mediated mouse model of allergic asthma. The data set is described as follows: protease-mediated mouse model of allergic asthma, BAL fluid cells. To be noted: 10 mg/kg i.p., C57BL/6J mice.
The conditions of data set [9]: in mouse; cited from earlier work.
The next data set has as its system mouse CCI model. The data set is described as follows: mouse model of chronic neuropathic pain. To be noted: for reversal of mechano-allodynia (paw withdrawal threshold): day 7 post-sciatic nerve constriction, adult male mice.
The subject of data set [10] is Nonhuman primate (chimpanzee) P2Y14R. To be noted: read-out: IC50 (P2Y14R), ref Belley et al.[15]; cited from earlier work.
Data set [11] addresses T1, hP2Y14R. The experiment in a line: whole-cell fluorescent competitive binding assay.
For data set [12], the system named is cardiac ischemia-reperfusion (I/R) injury. The experiment in a line: cardiac ischemia-reperfusion. The data set is classed as in vivo, mouse. To be noted: 2 mg/kg/day minipump.
The conditions of data set [13]: male, Wistar, rat, in vivo, ip.
The target in the next data set is T3, mP2Y14R (Mus musculus, UniProt Q9ESG6).
T3 sequence (Q9ESG6 1-338): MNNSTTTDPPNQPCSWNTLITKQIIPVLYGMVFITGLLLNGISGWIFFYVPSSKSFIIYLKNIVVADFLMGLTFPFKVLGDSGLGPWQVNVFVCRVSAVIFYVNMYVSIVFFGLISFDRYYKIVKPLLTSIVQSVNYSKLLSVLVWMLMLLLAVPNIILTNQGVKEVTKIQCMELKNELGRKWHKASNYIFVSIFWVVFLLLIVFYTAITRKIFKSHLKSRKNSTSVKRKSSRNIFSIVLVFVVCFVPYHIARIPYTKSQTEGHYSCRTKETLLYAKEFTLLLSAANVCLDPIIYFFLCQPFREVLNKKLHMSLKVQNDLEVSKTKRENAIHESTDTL
The data set is described as follows: whole-cell fluorescent binding assay at mP2Y14R expressed in HEK-293 cells.

Data set [14] can be described thus: pharmacokinetics and tolerability in male Wistar rats.
The target of the next data set is 5-HT5A (Homo sapiens, UniProt P47898). The data set is described as follows: PDSP off-target radioligand binding. To be noted: read-out: Ki, 5-HT5A; NIMH PDSP.
The next data set in a line: HPLC-based Log D7.4. Format: physicochemical. To be noted: from HPLC retention factors, calibration with five standards.
Another data set has as its target T4, σ2 receptor (Rattus norvegicus, UniProt Q5U3Y7).
T4 sequence (Q5U3Y7 1-176): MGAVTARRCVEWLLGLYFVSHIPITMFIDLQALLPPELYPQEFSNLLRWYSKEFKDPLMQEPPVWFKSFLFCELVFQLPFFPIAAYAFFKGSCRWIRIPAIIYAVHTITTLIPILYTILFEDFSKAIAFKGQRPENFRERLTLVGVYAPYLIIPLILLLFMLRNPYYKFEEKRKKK
The data set is described as follows: PDSP off-target radioligand binding. To be noted: read-out: Ki, σ2 receptor; NIMH PDSP.

The next data set deals with serotonin 5-HT1B (Homo sapiens, UniProt P28222). The experiment in a line: PDSP off-target radioligand binding. To be noted: read-out: Ki, serotonin 5-HT1B; NIMH PDSP.
A further data set deals with σ1 receptor (Cavia porcellus, UniProt Q60492). The experiment in a line: PDSP off-target radioligand binding. To be noted: read-out: Ki, σ1 receptor; NIMH PDSP.
σ1 receptor, sequence (Q60492 whole entry): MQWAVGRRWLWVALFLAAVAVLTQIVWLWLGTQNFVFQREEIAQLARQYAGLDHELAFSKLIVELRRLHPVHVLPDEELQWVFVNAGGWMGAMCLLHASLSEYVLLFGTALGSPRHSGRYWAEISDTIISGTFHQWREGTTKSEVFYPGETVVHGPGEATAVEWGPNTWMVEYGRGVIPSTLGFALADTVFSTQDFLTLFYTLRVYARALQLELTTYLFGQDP

serotonin 5-HT1B, sequence (P28222 whole entry): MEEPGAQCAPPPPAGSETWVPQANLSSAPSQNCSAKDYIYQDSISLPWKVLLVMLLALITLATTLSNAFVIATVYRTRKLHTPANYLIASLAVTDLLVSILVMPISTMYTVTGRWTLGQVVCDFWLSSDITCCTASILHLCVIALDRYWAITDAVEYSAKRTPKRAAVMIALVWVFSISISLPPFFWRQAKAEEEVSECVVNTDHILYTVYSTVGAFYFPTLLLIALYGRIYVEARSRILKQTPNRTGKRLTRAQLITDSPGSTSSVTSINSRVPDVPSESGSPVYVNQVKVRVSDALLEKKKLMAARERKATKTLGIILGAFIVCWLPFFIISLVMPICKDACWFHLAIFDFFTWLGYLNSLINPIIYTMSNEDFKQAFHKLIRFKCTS
hERG, sequence (Q12809 whole entry): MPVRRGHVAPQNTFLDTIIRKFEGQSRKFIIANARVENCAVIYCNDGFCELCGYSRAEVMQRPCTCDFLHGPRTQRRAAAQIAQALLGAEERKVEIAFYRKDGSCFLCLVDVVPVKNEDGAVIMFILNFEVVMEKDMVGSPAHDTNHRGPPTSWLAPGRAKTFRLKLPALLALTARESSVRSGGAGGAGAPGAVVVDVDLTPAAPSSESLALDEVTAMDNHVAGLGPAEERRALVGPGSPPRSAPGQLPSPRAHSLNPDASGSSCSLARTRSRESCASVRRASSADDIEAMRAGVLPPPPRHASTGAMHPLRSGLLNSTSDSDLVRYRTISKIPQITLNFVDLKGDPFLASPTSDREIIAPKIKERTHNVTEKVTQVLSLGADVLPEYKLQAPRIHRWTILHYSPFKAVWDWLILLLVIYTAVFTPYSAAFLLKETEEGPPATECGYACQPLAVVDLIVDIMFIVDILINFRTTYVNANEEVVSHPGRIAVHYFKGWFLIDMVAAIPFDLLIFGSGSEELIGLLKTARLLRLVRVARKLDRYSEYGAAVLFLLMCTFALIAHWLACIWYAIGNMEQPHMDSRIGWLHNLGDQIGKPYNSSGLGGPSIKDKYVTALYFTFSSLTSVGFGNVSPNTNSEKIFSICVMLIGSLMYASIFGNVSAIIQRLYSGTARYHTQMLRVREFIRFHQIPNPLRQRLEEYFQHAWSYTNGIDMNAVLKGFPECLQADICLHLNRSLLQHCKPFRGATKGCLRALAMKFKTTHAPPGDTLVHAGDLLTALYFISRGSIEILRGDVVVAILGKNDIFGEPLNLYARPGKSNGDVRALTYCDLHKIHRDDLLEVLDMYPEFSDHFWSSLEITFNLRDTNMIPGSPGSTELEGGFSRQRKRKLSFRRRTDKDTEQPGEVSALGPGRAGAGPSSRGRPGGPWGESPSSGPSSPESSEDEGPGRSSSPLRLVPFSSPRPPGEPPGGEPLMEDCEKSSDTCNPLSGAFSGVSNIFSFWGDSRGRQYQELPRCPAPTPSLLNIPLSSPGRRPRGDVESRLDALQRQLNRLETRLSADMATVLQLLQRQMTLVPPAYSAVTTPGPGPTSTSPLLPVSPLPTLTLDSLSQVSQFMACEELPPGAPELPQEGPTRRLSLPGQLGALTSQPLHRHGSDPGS
CYP2C9, sequence (P11712 whole entry): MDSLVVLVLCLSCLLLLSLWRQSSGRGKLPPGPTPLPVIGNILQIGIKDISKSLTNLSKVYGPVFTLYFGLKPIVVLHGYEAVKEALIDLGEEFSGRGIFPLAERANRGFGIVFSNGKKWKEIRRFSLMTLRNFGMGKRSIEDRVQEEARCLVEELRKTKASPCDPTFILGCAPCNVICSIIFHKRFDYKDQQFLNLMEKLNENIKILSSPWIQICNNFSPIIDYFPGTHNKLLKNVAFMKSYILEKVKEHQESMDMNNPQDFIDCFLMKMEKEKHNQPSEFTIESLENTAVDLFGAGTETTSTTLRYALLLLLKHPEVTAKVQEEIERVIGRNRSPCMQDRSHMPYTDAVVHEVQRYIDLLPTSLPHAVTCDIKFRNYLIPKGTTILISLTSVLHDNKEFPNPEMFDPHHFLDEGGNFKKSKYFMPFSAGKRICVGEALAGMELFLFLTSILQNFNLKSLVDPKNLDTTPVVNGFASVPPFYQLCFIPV
CYP3A4, sequence (P08684 whole entry): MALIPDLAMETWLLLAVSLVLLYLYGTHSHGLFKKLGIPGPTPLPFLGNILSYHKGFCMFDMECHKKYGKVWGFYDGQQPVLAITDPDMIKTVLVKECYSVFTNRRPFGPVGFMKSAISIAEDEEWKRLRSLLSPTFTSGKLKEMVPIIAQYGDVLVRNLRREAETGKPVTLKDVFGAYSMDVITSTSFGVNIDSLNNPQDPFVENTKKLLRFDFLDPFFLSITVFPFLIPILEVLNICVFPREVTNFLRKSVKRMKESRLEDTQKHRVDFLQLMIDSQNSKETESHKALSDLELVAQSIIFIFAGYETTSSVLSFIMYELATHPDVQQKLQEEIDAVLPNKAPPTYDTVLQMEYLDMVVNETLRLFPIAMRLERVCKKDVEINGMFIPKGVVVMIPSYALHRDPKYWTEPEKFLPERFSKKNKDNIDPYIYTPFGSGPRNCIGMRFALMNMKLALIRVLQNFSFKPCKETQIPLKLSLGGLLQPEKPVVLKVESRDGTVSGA
CYP2D6, sequence (P10635 whole entry): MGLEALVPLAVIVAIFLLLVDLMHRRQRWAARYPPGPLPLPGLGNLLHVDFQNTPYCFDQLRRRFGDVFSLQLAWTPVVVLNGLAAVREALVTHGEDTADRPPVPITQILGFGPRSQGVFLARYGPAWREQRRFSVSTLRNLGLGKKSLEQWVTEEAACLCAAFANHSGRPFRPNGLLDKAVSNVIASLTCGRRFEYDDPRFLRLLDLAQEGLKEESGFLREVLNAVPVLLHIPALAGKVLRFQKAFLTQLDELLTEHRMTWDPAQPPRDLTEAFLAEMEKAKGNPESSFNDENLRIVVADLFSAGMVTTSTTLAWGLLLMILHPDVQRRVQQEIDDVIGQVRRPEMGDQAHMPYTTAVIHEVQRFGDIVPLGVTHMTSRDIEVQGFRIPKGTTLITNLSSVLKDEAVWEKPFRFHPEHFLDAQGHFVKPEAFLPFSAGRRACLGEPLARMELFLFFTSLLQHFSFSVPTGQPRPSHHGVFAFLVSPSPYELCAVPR
CYP2C19, sequence (P33261 whole entry): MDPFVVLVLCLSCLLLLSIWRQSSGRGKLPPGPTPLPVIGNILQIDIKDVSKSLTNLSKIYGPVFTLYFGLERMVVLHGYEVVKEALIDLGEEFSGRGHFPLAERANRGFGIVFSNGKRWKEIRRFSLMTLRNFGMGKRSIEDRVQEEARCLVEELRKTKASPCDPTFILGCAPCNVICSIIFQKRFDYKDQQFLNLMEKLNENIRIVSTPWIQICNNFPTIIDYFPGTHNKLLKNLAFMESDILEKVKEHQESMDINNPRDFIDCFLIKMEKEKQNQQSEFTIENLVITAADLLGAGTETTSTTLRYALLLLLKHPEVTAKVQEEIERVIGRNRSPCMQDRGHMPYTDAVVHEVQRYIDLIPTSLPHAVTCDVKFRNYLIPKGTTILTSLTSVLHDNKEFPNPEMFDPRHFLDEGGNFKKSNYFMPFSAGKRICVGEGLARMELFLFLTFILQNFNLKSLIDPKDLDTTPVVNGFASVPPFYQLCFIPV
5-HT5A, sequence (P47898 whole entry, species assumed): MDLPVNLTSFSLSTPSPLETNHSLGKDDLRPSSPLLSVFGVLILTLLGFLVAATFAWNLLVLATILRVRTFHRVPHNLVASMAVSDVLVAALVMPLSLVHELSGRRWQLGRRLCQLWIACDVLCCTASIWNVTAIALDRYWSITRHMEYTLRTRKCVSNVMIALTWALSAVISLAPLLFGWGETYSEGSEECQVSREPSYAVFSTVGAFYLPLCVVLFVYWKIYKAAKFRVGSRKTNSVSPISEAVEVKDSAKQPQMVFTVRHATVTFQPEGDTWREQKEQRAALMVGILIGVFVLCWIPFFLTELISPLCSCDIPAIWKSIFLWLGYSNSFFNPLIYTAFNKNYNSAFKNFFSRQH

Usually Ki stands for a measure of affinity in units of concentration, obtained from inhibition or displacement. A word on the IC50: it is the concentration that inhibits the measured activity by half. With `O=C(O)c1cc(-c2ccc([C@H]3C[C@H]4C[C@@H]3CN4)cc2)c2ccc(-c3ccc(C(F)(F)F)cc3)cc2c1` [2b, 4-(4-((1S,4S,5S)-2-Azabicyclo[2.2.1]heptan-5-yl)phenyl)-7-(4-(trifluoromethyl)phenyl)-2-naphthoic Acid], on hP2Y14R [1], the Ki was found to be 0.00181 µM. For the same compound, the bioavailability in data set [2] is recorded as 43 %F. The “simulated intestinal fluid (% remaining at 120 min)” value in data set [3] is reported as 99.1%. Besides, the “plasma stability (% remaining at 120 min)” value in [4] was 82.8%; in [7] it was 100%. In addition, the “simulated gastric fluid (% remaining at 120 min)” value in [5] is recorded as 100^a %. Also, the IC50 at CYP2C19, at CYP2C9, on CYP2D6, on CYP1A2, at CYP3A4 and on hERG was over 30 µM each time. In [6], the “solubility, (μg/mL)” value is 1.90 (pH 7.4)^d μg/mL.

With `O=C(O)c1cc(-c2ccc(C3CCNCC3)cc2)c2ccc(-c3ccc(C(F)(F)F)cc3)cc2c1` [compound 1, 4-(4-(Piperidin-4-yl)phenyl)-7-(4-(trifluoromethyl)phenyl)-2-naphthoic Acid, reference compound], in data set [8], the “airway eosinophilia (eosinophils in BAL fluid)” value was “reduce airway eosinophilia” and the “lymphocytes in the BAL fluid” value is reported as “trend toward lower lymphocytes”. The oral bioavailability in [9] was 5 % F. For the same compound, the “reversal of mechano-allodynia (paw withdrawal threshold)” value in the data set on mouse CCI model (10 μmol/kg, p.o. (oral gavage)) was “full reversal of mechano-allodynia; also recorded: reversed the mechano-allodynia”. The IC50 in data set [10] was 0.0022 µM.

What is called half-life is the time needed for the level to fall by half in the phase considered. Read a high half-life as slow loss. As for `O=C(O)c1cc(-c2ccc([C@]3(O)[C@@H]4CNC[C@H]3C4)cc2)c2ccc(-c3ccc(C(F)(F)F)cc3)cc2c1` [compound 15, 4-(4-((1R,5S,6r)-6-Hydroxy-3-azabicyclo[3.1.1]heptan-6-yl)-phenyl)-7-(4-(trifluoromethyl)phenyl)-2-naphthoic Acid], in data set [8], the “airway eosinophilia (eosinophils in BAL fluid)” value is reported as “demonstrated significant protection”. For the same compound, the “lymphocytes in the BAL fluid” value in [8] is recorded as “trend toward lower lymphocytes”. Also, on hP2Y14R [11], the “ligand efficiency (LE)” value is 0.311. In [12], the “protection against heart I/R injury” value is “no protection against heart I/R injury”. Besides, the Maximal plasma concentration in data set [13] (1 mg/kg) was found to be 0.50 µM; in data set [13] (3 mg/kg) it was 1.3 µM; in data set [13] (10 mg/kg) it was 4.0 µM. Also, the “reversal of mechano-allodynia (paw withdrawal threshold)” value is “nearly complete protection at 1 h; also recorded: reversed the mechano-allodynia” in the data set with mouse CCI model (10 μmol/kg, p.o. (oral gavage)) and “full reversal of mechano-allodynia within 0.5 h” with mouse CCI model (i.p. injection). Also, the “duration of the protection” value with mouse CCI model (oral gavage, 10 μmol/kg, 1 and 15 in the same CCI experiment) is reported as “longer than protection by 1”. Further, the “mP2Y14R affinity higher than reference antagonist 1” value on mP2Y14R stood at 4.5 fold. Besides, in data set [14] (male Wistar rats, 1, 3, and 10 mg/kg i.p. and 0.5 mg/kg i.v.), the “mortality or morbidity / tolerability” value is reported as “well tolerated”. The compound further gave a half-life in data set [14] (male, Wistar, rat, plasma, ip, 3 mg/kg) of 4.3 h.

With “Mixture of 4-(4-(2,3,6,7-Tetrahydro-1H-azepin-4-yl)phenyl)-7-(4-(trifluoromethyl)phenyl)-2-naphthoic Acid and 4-(4-(2,5,6,7-Tetra-hydro-1H-azepin-4-yl)phenyl)-7-(4-(trifluoromethyl)phenyl)-2-naphthoic Acid [compound 17]”, the Ki came out at 4 µM on 5-HT5A; 0.00692 µM at hP2Y14R [11]; 3.9 µM at σ2 receptor; 4.1 µM at serotonin 5-HT1B; 0.84 µM on σ1 receptor. For the same compound, on hP2Y14R [11] (read-out: IC50 (nM), affinity at hP2Y14R, whole-cell fluorescent binding, tracer 52 (20 nM), hP2Y14R-CHO cells, n = 3–4 unless noted), the concentration for half-maximal inhibition (IC50) came to 11.9 ± 3.6 nM. Further, the “Log D7.4” value in “HPLC-based Log D7.4” is 2.2±0.0.
